Data from patent US20120288456A1, “NOVEL COMPOUND” (priority 2009, published 2012).

How the values were obtained:
[1] = Comparative solubility of BMDBM in 1:1 mixture of C12-15 alkyl benzoate and a polymeric or solid UV-filter
Text: Where necessary the mixture was centrifuged in order to obtain a clear supernatant.

[2] = Solubility of BMDBM and BEMT in cosmetic solvent with and without PG-UVB (saturation, HPLC of supernatant; storage test); details: 200 mg BEMT in 800 mg diethylhexyl adipate/PG-UVB1 1:1, 1 month at RT

- Δ solubility of BMDBM related to cosmetic solvent ([1]; C12-15 alkyl benzoate/UV-filter 1:1, label = UV-filter): −4 wt.-%
- Δ solubility of BMDBM ([1]; C12-15 alkyl benzoate/UV-filter 1:1 versus C12-15 alkyl benzoate, label = UV-filter): −11 wt.-%
- Solubility of BMDBM in C12-15 alkyl benzoate/UV-filter 1:1 ([1]; label = UV-filter in 1:1 mixture, 200 mg BMDBM in 1000 mg mixture, 1 month at RT, HPLC of supernatant): 3 wt.-%
- re-crystallization on storage [2]: no re-crystallization occurred
SMILES: CCCCC(CC)COc1ccc(-c2nc(-c3ccc(OC)cc3)nc(-c3ccc(OCC(CC)CCCC)cc3O)n2)c(O)c1 (stereo not shown) [BEMT, bis-ethylhexyloxyphenol methoxyphenyl triazine]
